# Literature values in patent US20110092532A1 (priority 2009, published 2011).
# Where two headings read alike, the source gives them in different places.
# Columns and labels:
# [1] = rats, after oral ingestion, portal vein not shunted
# [2] = test system: patients with motor fluctuations
# healthy volunteers = settings: healthy male volunteers, no anti-emetic drugs
# Cat = settings: subcutaneous
# Dog = settings: in vivo, sc
# [3] = SL apomorphine, three patients with motor fluctuations
structure (smiles),measurement,setting,value
CN1CCc2cccc3c2[C@H]1Cc1ccc(O)c(O)c1-3 [apomorphine],tissue levels of apomorphine,[1],not detectable
same,duration of effect,[2]; [3],15 to 100 min
same,latency to effect,[2]; [3],20 to 40 min
same,"""off"" periods","[2]; one patient, SL apomorphine as adjunct with levodopa, during one month",large decrease
same,Tmax,intranasal route,23 min
same,lag time,intranasal route,2.8 min
same,Tmax,subcutaneous route,18 min
same,lag time,subcutaneous route,3.9 min
same,amount of intravenous apomorphine which will reliably induce emesis,healthy volunteers,2.5 mg
same,Reversible Toxicity Seen,Cat,136 mg/kg
same,Reversible Toxicity Seen,Dog,36 to 71 mg/kg
